Here are results for three molecules from publication PMC11207111, “Assessment of the Activity of Nitroisoxazole Derivatives against Trypanosoma cruzi” (Molecules, 2024).

Data set [1] in a line: ORAC-FL antioxidant capacity. The settings on record: relative to Trolox; phosphate buffer 75 mM, pH 7.4, 37 °C. As for the experimental part:
To corroborate the generation of the nitro radical, the antioxidant capacity of the series under study was determined by ORAC-FL methodology, employing a fluorescent probe to capture oxygen-centered radicals (Table 2). The ORAC-FL values of the studied compounds are close to the reference value of Trolox, indicating a low antioxidant capacity. For compounds (1-3), the presence of amino substituents decreases antioxidant activity due to their […] characteristics, preventing the presence of labile hydrogens. […] Compounds 4 and 10 present similar ORAC indexes as aromatic rings with high electron density insert the transfer of labile protons. Antioxidant capacity was determined using the ORAC-fluorescence methodology (ORAC-FL). The analysis used a 96-well white polystyrene plate reader (EnSpire multimode PerkinElmer, Waltham, MA, USA). The reaction was carried out in phosphate buffer (75 mM, pH 7.4). […] A blank with FL and AAPH, using dimethyl sulfoxide instead of the antioxidant solution, was used in each assay. […] The inhibitor capacity was expressed as ORAC-FL values and quantified by integrating the area under the curve (AUCNET). All reaction mixtures were prepared in triplicate, and at least three independent assays were performed for each sample. The area under the fluorescence decay curve (AUC) was calculated by integrating the fluorescence decay where F0 is the initial fluorescence read at 0 min, and F is the fluorescence read at the time. The AUCNET corresponding to the sample was calculated by subtracting the AUC corresponding to the blank. Data were processed using Origin […].5 SR2 (San Francisco, CA, USA). The ORAC-FL indices were calculated according to the following Equation (1): (1) ORAC-[…]]

In data set [2] the test system is epimastigote of T. cruzi Dm28. Kind of data set: Trypanocidal activity (MTT) on epimastigotes. The format is cell-based. As to conditions: Trypanosoma cruzi; for IC50: T. cruzi Dm28, 24 h, read-out: IC50 T. cruzi E (epimastigote); for killing at 100 µM: 24 h, n.a = not active, read-out: % T. cruzi Epimastigote (trypanocidal effect). Here is the method: As a preliminary step, a study of nitroisoxazole derivatives on the epimastigote form of T. cruzi was performed. Despite the epimastigote form not being a clinical form present in mammals, its easy handling has allowed screening for the trypanocidal activity of various compounds. It is worth noting that, during the intracellular life cycle of the parasite, a form similar to the epimastigote, which is biochemically and morphologically identical to the form present in the vector, has been described. […] RPMI 1640 medium) for 24 h. […] The effects of the compounds on trypomastigote and Vero cell viability were evaluated by tetrazolium salt reduction assay (MTT). […] The plates were kept overnight at 37 °C (28 °C for epimastigotes), and the optical density (OD) was determined using a 96-well microplate reader (Vantaa, Finland) at 570 nm. Under these conditions, the OD is directly proportional to each well’s viable number of cells. The experiments were performed in triplicate across three different assays.

Data set [3] has as its system Vero mammalian cells. Kind of data set: Cytotoxicity (MTT) on Vero cells. Format: cell-based. The settings on record: Chlorocebus sabaeus, 24 h. Here is the method: Additionally, the cytotoxicity of the compounds on VERO mammalian cells was assessed (Table 4). […] It is observed that the majority of the derivatives present considerable cytotoxicity. […] RPMI 1640 medium) for 24 h. […] The effects of the compounds on trypomastigote and Vero cell viability were evaluated by tetrazolium salt reduction assay (MTT). […] The plates were kept overnight at 37 °C (28 °C for epimastigotes), and the optical density (OD) was determined using a 96-well microplate reader (Vantaa, Finland) at 570 nm. Under these conditions, the OD is directly proportional to each well’s viable number of cells. The experiments were performed in triplicate across three different assays.

Data set [4] relates to trypomastigote of T. cruzi Dm28. Kind of data set: Trypanocidal activity (MTT) on trypomastigotes. Format: cell-based. The settings on record: Trypanosoma cruzi; for killing at 100 µM: 24 h, n.a = not active, read-out: % T. cruzi Trypomastigote (trypanocidal effect); for IC50: T. cruzi Dm28, 24 h. Here is the method: As a preliminary step, a study of nitroisoxazole derivatives on the epimastigote form of T. cruzi was performed. Despite the epimastigote form not being a clinical form present in mammals, its easy handling has allowed screening for the trypanocidal activity of various compounds. It is worth noting that, during the intracellular life cycle of the parasite, a form similar to the epimastigote, which is biochemically and morphologically identical to the form present in the vector, has been described. […] This is consistent with studies by Fonseca-Berzal et al. […] Additionally, compounds with higher activity have aromatic rings as substituents for nitroisoxazoles, confirming what was described Do […] [40]. […] It has also been determined that the presence of an isoxazole is essential for activity, as its aromatic structure contains a weak nitrogen-oxygen bond that, under different reaction conditions, can undergo ring cleavage, increasing activity. The results obtained on epimastigotes cannot be conclusive for determining potential Chagas agents, so conducting studies on the infective, extracellular, non-replicative trypomastigote form of T. cruzi present in humans is essential. […] RPMI 1640 medium) for 24 h. […] The effects of the compounds on trypomastigote and Vero cell viability were evaluated by tetrazolium salt reduction assay (MTT). […] The plates were kept overnight at 37 °C (28 °C for epimastigotes), and the optical density (OD) was determined using a 96-well microplate reader (Vantaa, Finland) at 570 nm. Under these conditions, the OD is directly proportional to each well's viable number of cells. The experiments were performed in triplicate across three different assays.

Data set [5] concerns T. cruzi trypomastigotes. Kind of data set: Generation of ROS (DCFH2-DA fluorescent probe). Format: cell-based, Trypanosoma cruzi. The settings on record: 100 µM, 40 min, vs control without compound. Here is the method: To generate radical species on T. cruzi trypomastigotes, intracellular free radicals were determined using the fluorescent probe dichlorofluorescein (DCF).
The cultures were incubated with a 20 µM DCFH2-DA solution for 15 min at 28 °C. Then, they were centrifuged at 3500 rpm and washed 2 times with phosphate buffer saline (PBS) pH 7.4. Cells loaded with DCFH2-DA were transferred to a Nunc® fluorescence 96-well plate (Thermo Fisher Scientific Inc., Waltham, MA, USA), where the nitroisoxazoles derivates were added at 100 µM. Fluorescence (exi: 488 nm, emi: 528 nm) was recorded for 40 min in a BioTek (Winooski, VT, USA) Synergy HT spectrofluorometer. The area under increase curves over time was determined using Oring 8 software, with areas normalized to control. Results are the means ± SD of three independent experiments.

A short description of data set [6]: Cyclic voltammetry (reduction of the nitro group). The format is physicochemical. Also noted: key to −EpcI / −EpcII / −EpaII / −EpaI: potentials in V vs Ag/AgCl; |ΔEp|: unit not given here. The settings on record: cyclic voltammetry at 2.0 V/s. An excerpt: The chemistry mechanism of reduction in nitroisoxazole derivatives was investigated using cyclic voltammetry.
The peak near −1.32 V corresponds to a quasi-reversible one-electron transfer, according to the criteria of Nicholson–Shain [26] (Table 1), attributable to the species −NO2/NO2.− . The latter species stable anion radical at room temperature. […] An irreversible peak at −0.93 V to the mono-electronic transfer −HNO2/HNO2.− is observed, coupled with a chemical reaction associated with […] of the formed radical. This was evidenced by the addition of NaOH (1 M), which caused a decrease in the Ic peak (Figure 2c).
As previously described, an irreversible signal assigned to hydroxylamine oxidation to a nitroso derivative is also observed for N-acylhydrazones organometallic compounds with a pendant 5-nitrofuryl group. […] Compound 7, which has the least negative reduction potential, can be attributed to introducing a nitro group in the para position of the nitroisoxazole ring. This effect can also be observed in derivatives containing halogens in the same position.
Electrochemical characterization of the new compounds was performed through cyclic voltammetry (CV) on a 693 VA Metrohm instrument (Tokyo, Japan) equipped with a 694 VA Stand converter and 693 VA processor. Potentials were recorded against the Ag/AgCl reference electrode; a hanging drop of mercury (HDME) was used as a working electrode, and platinum was used as an auxiliary electrode. Tetrabutylammonium perchlorate (TBAP, 0.1 M) in DMSO was used as a supporting electrolyte under an N2 atmosphere at room temperature. Using Nicholson´s procedure, the Ipa/Ipc values (RNO2/RNO2^−) were measured from each cyclic voltammogram with a scan rate between 0.1 and 2.5 V/s.

In turn, `Cc1noc(/C=C/c2cn(-c3ccc(Cl)cc3)c3ccccc23)c1[N+](=O)[O-]` [Compound 13, (E)-5-(2-(1-(4-Chlorophenyl)-1H-indol-3-yl)vinyl)-3-methyl-4-nitroisoxazole] gave a melting point of 217 to 220 °C. For the same molecule, the “ORAC-FL Index” value in data set [1] is 0.4 ± 0.1. In data set [2], the IC50 is over 400 µM. In data set [3], half-maximal inhibition (IC50) was put at 102 ± 6 µM. In addition, in data set [4], the killing at 100 µM came to 14 ± 3% and the IC50 was over 400 µM. For the same molecule, the “ROS generation (DCF fluorescence intensity)” value (from here on “ROS generation”) in data set [5] was “did not show ROS generation”. In addition, in data set [6], the Ipa/Ipc is listed as −0.41 and the “|ΔEp|” value is given as 90. Besides, in data set [6] (DMSO, 0.1 M TBAP, vs Ag/AgCl), the “−EpaII” value was found to be 0.90, the “−EpcI” value is 0.75 and the “−EpcII” value came to 0.99.

For `Cc1noc(/C=C/c2cccc(Br)c2)c1[N+](=O)[O-]` [Compound 16, (E)-5-(3-Bromostyryl)-3-methyl-4-nitroisoxazole], the melting point was in the range of 174 to 177 °C. For the same molecule, in data set [1], the “ORAC-FL Index” value was 0.54 ± 0.07. Also, in data set [2], the killing at 100 µM is 19 ± 3% and the IC50 was over 400 µM. In data set [3], this molecule yielded an IC50 of 141 ± 4 µM. Also, in data set [4], the killing at 100 µM came to 22 ± 6% and the IC50 is over 400 µM. In addition, the “ROS generation” value in data set [5] is “did not show ROS generation”. Moreover, in data set [6] (DMSO, 0.1 M TBAP, vs Ag/AgCl), the “−EpcI” value is recorded as 0.78 and the “−EpcII” value came out at 1.41.

In the case of `Cc1noc(/C=C/c2ccc(Br)cc2)c1[N+](=O)[O-]` [Compound 17, (E)-5-(4-Bromostyryl)-3-methyl-4-nitroisoxazole], the melting point was in the range of 195 to 198 °C. Moreover, in data set [1], the “ORAC-FL Index” value turned out to be 0.4 ± 0.2. Moreover, in data set [2], the killing at 100 µM amounted to 27 ± 1% and the IC50 is over 400 µM. This molecule displayed an IC50 in data set [3] of over 400 µM. In data set [4], the killing at 100 µM turned out to be 15 ± 5% and the IC50 is over 400 µM. Further, the “ROS generation” value in data set [5] is given as “did not show ROS generation”. In data set [6] (DMSO, 0.1 M TBAP, vs Ag/AgCl), the “−EpcI” value was determined as 0.81 and the “−EpcII” value came to 1.53.

The term IC50 denotes the concentration that inhibits the measured activity by half. By melting point is commonly meant the temperature of the solid-liquid transition.
